Source: patent US20150148235A1, “HERBICIDE-RESISTANT SUNFLOWER PLANTS WITH MULTIPLE HERBICIDE RESISTANT ALLELES OF AHASL1 AND METHODS OF USE” (NIDERA S.A., priority 2013, published 2015)
Values joined by “and” are separate entries in the source; they are usually repeats but may differ in a detail not shown here. Equal entries are not always repeated. Marks after values point to notes of the source that are not given here.

System: sunflower lines (WT, A122T/A122T, A122T/P197L, P197L/P197L)
Test: Greenhouse whole-plant response to metsulfuron methyl, Example 5
Type: in vivo, Helianthus annuus
Conditions: 14 DAT
Protocol: Seeds were sown in Petri dishes and, after germination, plantlets were transplanted into 10 cm pots containing potting media consisting of equal parts of vermiculite, soil, and sand. Plants were grown in the greenhouse under natural light conditions supplemented with 400 W sodium halide lamps to provide a 16 hr daylength. Day/night temperatures were 25 and 20° C., respectively. At the V2-V4 stage (Schneiter & Miller, 1981) 20 plants of each genotype were randomly assigned to each treatment consisting of three metsulfuron methyl doses (0 or no treatment, 5 g ai/ha or a 1× rate, and 10 g ai/ha or a 2× rate). A zero-time biomass determination was also conducted. The experiment was arranged as a randomized complete block design (RCBD) with a full factorial arrangement of treatments and 20 replications (sunflower line×treatment).
For the zero-time dried weight determination, ten plants of each genotype were cut at the cotyledonal node on the day of herbicide application and dried at 60° C. for 48 hr. The rest of the plants were maintained for 14 days after herbicide treatment (DAT) and their height, Phytotoxicity Index (PI) and above ground dry biomass were recorded. Height was determined as the distance between the cotyledonal node and the apex of each plant. The above ground biomass data for each line was converted to biomass accumulation after application by subtracting the appropriate average zero-time biomass from each sample. Height and dry biomass were converted to a percentage of the untreated control for each line to allow direct comparisons between groups.
The data was subjected to an ANOVA and the means were compared by an LSD test.

[1] = BTSu-R1 (P197L/P197L), 1X (5 g ai./ha)
[2] = BTSu-R1 (P197L/P197L), 2X (10 g ai./ha)
[3] = GM40 (A122T/A122T), 1X (5 g ai./ha)
[4] = GM40 (A122T/A122T), 2X (10 g ai./ha)
[5] = GM1606 (A122T/A122T), 1X (5 g ai./ha)
[6] = GM1606 (A122T/A122T), 2X (10 g ai./ha)
[7] = L4 (A122T/A122T), 1X (5 g ai./ha)
[8] = L4 (A122T/A122T), 2X (10 g ai./ha)
[9] = cmsGM40xBTSu-R1 (A122T/P197L), 1X (5 g ai./ha)
[10] = cmsGM40xBTSu-R1 (A122T/P197L), 2X (10 g ai./ha)
[11] = cmsGM40xL4 (A122T/A122T), 1X (5 g ai./ha)
[12] = cmsGM40xL4 (A122T/A122T), 2X (10 g ai./ha)

## COC(=O)c1ccccc1S(=O)(=O)NC(=O)Nc1nc(C)nc(OC)n1 [metsulfuron]
B770 (WT), 1X (5 g ai./ha)
  Dry Matter accumulation (DMA): 28.43^b %
  Phytotoxicity Index (PI) (scale 0-9): 8.50^bc
B770 (WT), 2X (10 g ai./ha)
  Dry Matter accumulation (DMA): 28.77^b %
  Mean Height Reduction (PH): 18.20^a %
  Phytotoxicity Index (PI) (scale 0-9): 9.00^d
[1]
  Dry Matter accumulation (DMA): 88% and 88.1% and 88.10^d %
  Mean Height Reduction (PH): 79.01^b %
[2]
  Dry Matter accumulation (DMA): 77% and 76.69^c %
  Mean Height Reduction (PH): 80.85^c %
[3]
  Dry Matter accumulation (DMA): 25.73^ab %
  Mean Height Reduction (PH): 21.39^a %
  Phytotoxicity Index (PI) (scale 0-9): 9.00^d
[4]
  Dry Matter accumulation (DMA): 20.69^a %
  Mean Height Reduction (PH): 21.17^a %
  Phytotoxicity Index (PI) (scale 0-9): 9.00^d
[5]
  Dry Matter accumulation (DMA): 30.39^b %
  Mean Height Reduction (PH): 21.55^a %
  Phytotoxicity Index (PI) (scale 0-9): 8.70^d
[6]
  Dry Matter accumulation (DMA): 20.45^a %
  Mean Height Reduction (PH): 21.70^a %
  Phytotoxicity Index (PI) (scale 0-9): 9.00^d
[7]
  Dry Matter accumulation (DMA): 25.40^ab %
  Mean Height Reduction (PH): 19.47^a %
  Phytotoxicity Index (PI) (scale 0-9): 8.25^b
[8]
  Dry Matter accumulation (DMA): 18.80^a %
  Mean Height Reduction (PH): 18.73^a %
  Phytotoxicity Index (PI) (scale 0-9): 8.5^c
[9]
  Dry Matter accumulation (DMA): 74.4% and 74.36^c %
  Mean Height Reduction (PH): 77.04^b %
  Phytotoxicity Index (PI) (scale 0-9): 0.00^a
[10]
  Dry Matter accumulation (DMA): 72.66^c %
  Mean Height Reduction (PH): 62% and 61.99^b %
[11]
  Dry Matter accumulation (DMA): 19.90^a %
  Mean Height Reduction (PH): 22.45^a %
  Phytotoxicity Index (PI) (scale 0-9): 8.67 ^d
[12]
  Dry Matter accumulation (DMA): 18.23^a %
  Mean Height Reduction (PH): 20.56^a %
  Phytotoxicity Index (PI) (scale 0-9): 8.82^cd
